Read-outs that look alike come from different tables or passages of the source. Where no end group is shown, it is not given here.
Assays:
ETB receptors [1] = biological target: T1, ETB receptors (Homo sapiens, UniProt P24530); experiment: HERBA-B, [125I]-ET-1 binding to recombinant human ETB receptor expressed in CHO-K1 cell membranes; parameters: expressed in transfected cells; host or cells: CHO-K1 cells (membranes)
T1 sequence (P24530 27-442): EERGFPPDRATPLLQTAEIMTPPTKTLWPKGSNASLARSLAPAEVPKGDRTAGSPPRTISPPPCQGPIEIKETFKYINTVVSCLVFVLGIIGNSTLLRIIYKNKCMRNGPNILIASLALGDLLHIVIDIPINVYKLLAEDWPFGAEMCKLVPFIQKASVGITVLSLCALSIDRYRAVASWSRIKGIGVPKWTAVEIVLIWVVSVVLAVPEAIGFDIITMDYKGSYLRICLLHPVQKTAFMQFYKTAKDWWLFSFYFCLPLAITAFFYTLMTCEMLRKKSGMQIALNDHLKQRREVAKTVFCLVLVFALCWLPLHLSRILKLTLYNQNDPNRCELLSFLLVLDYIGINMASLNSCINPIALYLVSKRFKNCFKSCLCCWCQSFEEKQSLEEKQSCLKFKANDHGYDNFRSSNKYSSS
Description: The compounds of Formula I are valuable antagonists of endothelin. […] The above process has also been modified by using human recombinant CHO-K1 cells. […] The gene for human ETB receptor was cloned and inserted into the pRc-CMW expression vector, then transfected into CHO-K1 cells by electroporation. For binding assays, membranes (0.7 mg protein) of CHO-K1 cells expressing recombinant human ETB receptor were used.

[2] = biological target: T2, endothelin receptor of rabbit renal artery vascular smooth muscle cells (Oryctolagus cuniculus, UniProt A5A8K3); assay type: binding; conditions: [125I]-ET-1 25 pM, 37° C., 2 hours, read-out: IC50 ERBA-A
T2 sequence (A5A8K3 21-427): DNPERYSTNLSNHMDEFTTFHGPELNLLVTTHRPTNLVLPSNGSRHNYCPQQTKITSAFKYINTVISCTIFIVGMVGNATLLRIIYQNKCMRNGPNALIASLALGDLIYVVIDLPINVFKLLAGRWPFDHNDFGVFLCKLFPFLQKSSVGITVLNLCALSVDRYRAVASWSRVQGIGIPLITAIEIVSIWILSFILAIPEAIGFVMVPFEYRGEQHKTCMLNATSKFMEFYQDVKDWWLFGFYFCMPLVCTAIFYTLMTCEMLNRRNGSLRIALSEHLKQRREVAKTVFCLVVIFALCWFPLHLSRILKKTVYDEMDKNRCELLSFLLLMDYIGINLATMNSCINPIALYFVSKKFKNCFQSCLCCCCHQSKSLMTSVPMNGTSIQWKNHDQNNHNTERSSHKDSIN
Text: The compounds of Formula I are valuable antagonists of endothelin.

ETA = conditions: cited from earlier work
ETA and ETB receptors [3] = conditions: cited from earlier work
[4] = biological target: T3, endothelin receptor of rat cerebellar membranes (Rattus norvegicus, UniProt P21451); experiment: Endothelin receptor binding assay-B (ERBA-B), [125I]-ET-1 binding in rat cerebellar membranes; conditions: [125I]-ET-1 25 pM, 37° C., 2 hours
T3 sequence (P21451 27-442): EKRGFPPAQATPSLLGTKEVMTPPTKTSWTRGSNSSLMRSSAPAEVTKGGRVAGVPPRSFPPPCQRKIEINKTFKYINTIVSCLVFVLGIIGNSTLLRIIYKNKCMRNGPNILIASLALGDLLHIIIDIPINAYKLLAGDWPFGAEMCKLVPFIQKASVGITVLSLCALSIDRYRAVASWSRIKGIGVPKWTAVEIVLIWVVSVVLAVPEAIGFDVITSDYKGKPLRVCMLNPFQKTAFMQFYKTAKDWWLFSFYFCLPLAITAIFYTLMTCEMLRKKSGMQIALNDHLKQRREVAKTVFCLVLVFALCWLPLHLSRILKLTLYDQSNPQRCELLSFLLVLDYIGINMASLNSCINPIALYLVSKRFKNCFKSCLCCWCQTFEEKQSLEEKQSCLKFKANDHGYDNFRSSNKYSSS
Text: The compounds of Formula I are valuable antagonists of endothelin. […] ENDOTHELIN RECEPTOR BINDING […]-1 BINDING IN RAT CEREBELLAR MEMBRANES […] Count filters for radioactivity in gamma counter.

ETB receptors [5] = biological target: T1, ETB receptors; experiment: AAR-B, inhibition of ET-3 stimulated arachidonic acid release in CHO cells expressing recombinant ETB receptors; assay type: cell-based; parameters: expressed in transfected cells; host or cells: Chinese hamster ovary (CHO) cells; conditions: ET-3 (1.0 nM) stimulated [3H]arachidonic acid release, read-out: IC50 AAR-B (Antagonist)
ETA and ETB receptors [6] = conditions: rats, cited from earlier work
ETA and ETB receptors [7] = conditions: rats, cited from earlier work; remark: listed apart in the source
ETA and ETB receptors [8] = conditions: orally administered; cited from earlier work
endothelin receptor = conditions: cited from earlier work
[9] = intracerebroventricular, rats; cited from earlier work
endothelin ETA receptor [10] = conditions: intracisternal, canine subarachnoid hemorrhage model; cited from earlier work
ETA receptor = conditions: intraperitoneal, rats; cited from earlier work
endothelin ETA receptor [11] = conditions: rats; cited from earlier work
ETB = conditions: isolated, endothelium-intact porcine pulmonary arteries; cited from earlier work

| Compound | IC50 (ETB receptors [1]) [µM] | IC50 [2] [µM] | also measured |
| --- | --- | --- | --- |
| Cc1noc(NS(=O)(=O)c2cccc3c(N(C)C)cccc23)c1C [5-(Dimethylamino)-N-(3,4-dimethyl-5-isoxazolyl)-1-naphthalenesulfonamide] | – | – | oral antihypertensive effect (ETA): oral antihypertensive effect |
| Cc1noc(NS(=O)(=O)c2cccc3c(N(C)C)cccc23)c1C [BMS182874] | – | – | ETA/ETB receptor antagonism and selectivity (ETA and ETB receptors [3]): ETA specific antagonists |
| C[C@](Cc1c[nH]c2ccccc12)(NC(=O)C(Cc1cccc2ccccc12)Cc1cccc2ccccc12)C(=O)O [Example 1, Bis-(1-naphthylmethyl)acetyl-(α-methyl-D-tryptophan)] | 0.57 | 10 | IC50 [4]: 0.6 µM; IC50 (ETB receptors [5]): 2.5 µM |
| C[C@](Cc1c[nH]c2ccccc12)(NC(=O)C(Cc1ccc2c(c1)OCO2)Cc1ccc2c(c1)OCO2)C(=O)O [Example 2, Bis-(3,4-methylenedioxyphenylmethyl)acetyl-(α-methyl-D-tryptophan)] | 1.6 | > 25 | – |
| COc1cccc(Oc2c(NS(=O)(=O)c3ccc(C(C)(C)C)cc3)ncnc2OCCO)c1 [Ro 46-2005] | – | – | ETA/ETB receptor antagonism and selectivity (ETA and ETB receptors [3]): non-selective ETA /ETB antagonists; effect in renal ischemia (ETA and ETB receptors [6]): protective effect for renal vasoconstriction after renal ischemia; effect in renal ischemia (ETA and ETB receptors [6]; listed as RO 46-2005): effective in models of acute renal ischemia; effect in subarachnoid hemorrhage (ETA and ETB receptors [7]): dramatically reduced cerebral vasoconstriction after subarachnoid hemorrhage; effect in subarachnoid hemorrhage (ETA and ETB receptors [7]; listed as RO 46-2005): effective in models of acute renal ischemia and subarachnoid hemorrhage in rats; antihypertensive effect (ETA and ETB receptors [8]): marked antihypertensive effect with a reasonably long duration |
| COc1ccccc1Oc1c(NS(=O)(=O)c2ccc(C(C)(C)C)cc2)nc(-c2ncccn2)nc1OCCO [Ro 47-0203] | – | – | ETA/ETB receptor antagonism and selectivity (ETA and ETB receptors [3]): non-selective ETA /ETB antagonists; blood brain barrier crossing (endothelin receptor; inferred from rabbit subarachnoid hemorrhage model): crosses the blood brain barrier; reversal of vasoconstriction (endothelin receptor; rabbit subarachnoid hemorrhage model): effective in a rabbit subarachnoid hemorrhage model in reversing vasoconstriction |
| Endothelin-1 (CSCSSLMDKECVYFCHLDIIW; not fully specified (bridges); cysteine pairing not given here; UniProt P05305 53-73, looked up) [ET-1] | – | – | behavioral effects [9]: evoke several behavioral effects |
| FR 139317 | – | – | ETA/ETB receptor antagonism and selectivity (ETA and ETB receptors [3]): potent endothelin ETA receptor antagonist; vasoconstriction of the basilar artery (endothelin ETA receptor [10]): significantly reduced the vasoconstriction of the basilar artery; permeability to proteins, glomerular injury and renal function (ETA receptor): reduced abnormal permeability to proteins and limited glomerular injury and prevented renal function deterioration; ET-1 induced arrhythmia (endothelin ETA receptor [11]): suppressed |
| N-Acetyl-ET [N-Acetyl-ET [10-21,11,15-Ala]] | – | – | vasorelaxation (ETB): caused vasorelaxation |

More lines, main results first:

| IC50 (ETB receptors [1]) [µM] | IC50 [2] [µM] | Compound | also measured |
| --- | --- | --- | --- |
| 6.5 | 14 | CC(Cc1ccccc1)(NC(=O)C(Cc1cccc2ccccc12)Cc1cccc2ccccc12)C(=O)O (racemic) [Example 13, Bis-(1-naphthylmethyl)acetyl-(α-methyl-D, L-phenylalanine)] | – |
| 18 | 25 | CC(Cc1ccc(O)cc1)(NC(=O)C(Cc1cccc2ccccc12)Cc1cccc2ccccc12)C(=O)O (racemic) [Example 14, Bis-(1-naphthylmethyl)acetyl-(α-methyl-D, L-tyrosine)] | – |
| 16 | > 25 | C[C@](Cc1c[nH]c2ccccc12)(NC(=O)C(Cc1ccc2ccccc2c1)Cc1ccc2ccccc2c1)C(=O)O [Example 3, Bis-(2-naphthylmethyl)acetyl-(α-methyl-D-tryptophan)] | – |
| 2.9 | > 25 | Cc1cccc(CC(Cc2cccc(C)c2C)C(=O)N[C@](C)(Cc2c[nH]c3ccccc23)C(=O)O)c1C [Example 4] | – |
| 19 | > 25 | C[C@](Cc1c[nH]c2ccccc12)(NC(=O)C(Cc1ccccc1)Cc1ccccc1)C(=O)O [Example 5, Di-benzylacetyl-(α-methyl-D-tryptophan)] | – |
| 1.4 | 14 | C[C@](Cc1c[nH]c2ccccc12)(NC(=O)C(Cc1cccc2c1CCCC2)Cc1cccc2c1CCCC2)C(=O)O [Example 6, Bis-(5,6,7,8-tetrahydro-1-naphthylmethyl)acetyl-(α-methyl-D-tryptophan)] | – |
| 27 | > 25 | C[C@](Cc1c[nH]c2ccccc12)(NC(=O)C(Cc1c(F)c(F)c(F)c(F)c1F)Cc1c(F)c(F)c(F)c(F)c1F)C(=O)O [Example 7, Bis-(2,3,4,5,6-pentafluorophenylmethyl)acetyl-(α-methyl-D-tryptophan)] | – |
| – | > 30 | C[C@@](Cc1c[nH]c2ccccc12)(NC(=O)C(Cc1cccc2ccccc12)Cc1cccc2ccccc12)C(=O)O [Example 8, Bis-(1-naphthylmethyl)acetyl-(α-methyl-L-tryptophan)] | IC50 [4]: 17 µM |
| 2.2 | 26 | C[C@](Cc1c[nH]c2ccccc12)(NC(=O)C(Cc1ccccc1)Cc1cccc2ccccc12)C(=O)O (stereo partly drawn) [Example 9, 2-(1-Naphthylmethyl)-2-benzylacetyl-(α-methyl-D-tryptophan)] | IC50 (ETB receptors [5]): 6.6 µM |
| 1.5 | > 25 | Cc1ccccc1CC(Cc1ccccc1C)C(=O)N[C@](C)(Cc1c[nH]c2ccccc12)C(=O)O [Example 10, Bis-(2-methylphenylmethyl)acetyl-(α-methyl-D-tryptophan)] | IC50 (ETB receptors [5]): 9.5 µM |
| 4.7 | > 25 | Cc1cccc(CC(Cc2cccc(C)c2)C(=O)N[C@](C)(Cc2c[nH]c3ccccc23)C(=O)O)c1 [Example 11, Bis-(3-methylphenylmethyl)acetyl-(α-methyl-D-tryptophan)] | IC50 (ETB receptors [5]): 9.9 µM |
| 10 | > 25 | CC(Cc1cccc2ccccc12)(Cc1cccc2ccccc12)C(=O)N[C@](C)(Cc1c[nH]c2ccccc12)C(=O)O [Example 12, Bis-2-(1-naphthylmethyl)-2-methylacetyl-(α-methyl-D-tryptophan)] | – |
| 9.2 | 14 | C[C@](Cc1c[nH]c2ccccc12)(NCC(Cc1cccc2ccccc12)Cc1cccc2ccccc12)C(=O)O [Example 15, N-[2-bis-(1-naphthylmethyl)ethyl]-(α-methyl-D-tryptophan)] | – |
| 7.4 | > 25 | C[C@](Cc1c[nH]c2ccccc12)(NC(=O)C(CC1CCCCC1)CC1CCCCC1)C(=O)O [Example 16, Bis-(cyclohexylmethyl)acetyl-(α-methyl-D-tryptophan)] | – |
